Experimental data reported in US20210355129A1, “NOVEL UREA 6,7-DIHYDRO-4H-PYRAZOLO[1,5-A]PYRAZINES ACTIVE AGAINST THE HEPATITIS B VIRUS (HBV)” (AICURIS GMBH & CO. KG, priority 2018, published 2021).

How the values were obtained:
HBV = assay: Determination of HBV DNA from the supernatants of HepAD38 cells (anti-HBV activity); conditions: Hepatitis B virus, HePAD38, 144 h, read-out: Cell Activity
[1] = Cell viability assay (AlamarBlue); assay type: cell-based; conditions: human, HepAD38 cells in the presence of 0.3 μg/ml tetracycline, six days incubation
Protocol: Using the AlamarBlue viability assay cytotoxicity was evaluated in HepAD38 cells in the presence of 0.3 μg/ml tetracycline, which blocks the expression of the HBV genome. Assay condition and plate layout were in analogy to the anti-HBV assay, however other controls were used. On each assay plate six wells containing untreated HepAD38 cells were used as the 100% viability control, and six wells filled with assay medium only were used as 0% viability control. In addition, a geometric concentration series of cycloheximide starting at 60 μM final assay concentration was used as positive control in each experiment. After six days incubation period Alamar Blue Presto cell viability reagent (ThermoFisher, Dreieich) was added in 1/11 dilution to each well of the assay plate. After an incubation for 30 to 45 min at 37° C. the fluorescence signal, which is proportional to the number of living cells, was read using a Tecan Spectrafluor Plus plate reader with an excitation filter 550 nm and emission filter 595 nm, respectively. […] Mean EC50 and CC50 values were used to calculate the selectivity index (SI=CC50/EC50) for each test compound.

For COCC1(N(C)C(=O)c2cnn3c2CN(C(=O)Nc2ccc(F)c(Cl)c2)C(C)C3)CC1 (stereo not shown) [Example 1, N5-(3-chloro-4-fluorophenyl)-N3-[1-(methoxymethyl)cyclopropyl]-N3,6-dimethyl-4H,5H,6H,7H-pyrazolo[1,5-a]pyrazine-3,5-dicarboxamide], the EC50 (HBV) was under 1 µM and the CC50 at 6 days [1] was over 10 µM.

Work on CC(C)OCC1(N(C)C(=O)c2cnn3c2CN(C(=O)Nc2ccc(F)c(Cl)c2)CC3)CC1 [Example 2, N5-(3-chloro-4-fluorophenyl)-N3-methyl-N3-{1-[(propan-2-yloxy)methyl]cyclopropyl}-4H,5H,6H,7H-pyrazolo[1,5-a]pyrazine-3,5-dicarboxamide] yielded an EC50 (HBV) of under 1 µM and a CC50 at 6 days [1] of over 10 µM.

For CCOCC1(N(C)C(=O)c2cnn3c2CN(C(=O)Nc2ccc(F)c(Cl)c2)CC3)CC1 [Example 3, N5-(3-chloro-4-fluorophenyl)-N3-[1-(ethoxymethyl)cyclopropyl]-N3-methyl-4H,5H,6H,7H-pyrazolo[1,5-a]pyrazine-3,5-dicarboxamide], the EC50 (HBV) was under 1 µM and the CC50 at 6 days [1] was over 10 µM.

For CN(C(=O)c1cnn2c1CN(C(=O)Nc1ccc(F)c(Cl)c1)CC2)C1(COC(F)F)CC1 [Example 4, N5-(3-chloro-4-fluorophenyl)-N3-{1-[(difluoromethoxy)methyl]cyclopropyl}-N3-methyl-4H,5H,6H,7H-pyrazolo[1,5-a]pyrazine-3,5-dicarboxamide], the EC50 (HBV) was under 1 µM and the CC50 at 6 days [1] was over 10 µM.

For O=C(Nc1ccc(F)c(Cl)c1)N1CCn2ncc(C(=O)N3CC(F)(F)CC34CC4)c2C1 [Example 5, N-(3-chloro-4-fluorophenyl)-3-{6,6-difluoro-4-azaspiro[2.4]heptane-4-carbonyl}-4H,5H,6H,7H-pyrazolo[1,5-a]pyrazine-5-carboxamide], the EC50 (HBV) was under 1 µM and the CC50 at 6 days [1] was over 10 µM.

Work on CC1Cn2ncc(C(=O)N(C)C3(COC(F)F)CC3)c2CN1C(=O)Nc1ccc(F)c(Cl)c1 (stereo not shown) [Example 6, N5-(3-chloro-4-fluorophenyl)-N3-{1-[(difluoromethoxy)methyl]cyclopropyl}-N3,6-dimethyl-4H,5H,6H,7H-pyrazolo[1,5-a]pyrazine-3,5-dicarboxamide] yielded an EC50 (HBV) of under 1 µM and a CC50 at 6 days [1] of over 10 µM.

Molecule CN(C(=O)c1cnn2c1CN(C(=O)Nc1ccc(F)c(Cl)c1)CC2)C1(c2ccncc2)CC1 [Example 7, N5-(3-chloro-4-fluorophenyl)-N3-methyl-N3-[1-(pyridin-4-yl)cyclopropyl]-4H,5H,6H,7H-pyrazolo[1,5-a]pyrazine-3,5-dicarboxamide] has an EC50 (HBV) of under 1 µM and a CC50 at 6 days [1] of over 10 µM.

For CN(C(=O)c1cnn2c1CN(C(=O)Nc1ccc(F)c(Cl)c1)CC2)C1(c2ncccn2)CC1 [Example 8, N5-(3-chloro-4-fluorophenyl)-N3-methyl-N3-[1-(pyrimidin-2-yl)cyclopropyl]-4H,5H,6H,7H-pyrazolo[1,5-a]pyrazine-3,5-dicarboxamide], the EC50 (HBV) was under 1 µM and the CC50 at 6 days [1] was over 10 µM.

Work on CN(C(=O)c1cnn2c1CN(C(=O)Nc1ccc(F)c(Cl)c1)CC2)C1(CO)CC1 [Example 9, N5-(3-chloro-4-fluorophenyl)-N3-[1-(hydroxymethyl)cyclopropyl]-N3-methyl-4H,5H,6H,7H-pyrazolo[1,5-a]pyrazine-3,5-dicarboxamide] yielded an EC50 (HBV) of under 1 µM and a CC50 at 6 days [1] of over 10 µM.

O=C(Nc1ccc(F)c(Cl)c1)N1CCn2ncc(C(=O)N(CCO)C3(CO)CC3)c2C1 [Example 10, N5-(3-chloro-4-fluorophenyl)-N3-(2-hydroxyethyl)-N3-[1-(hydroxymethyl)cyclopropyl]-4H,5H,6H,7H-pyrazol [1,5-a]pyrazine-3,5-dicarboxamide] gave an EC50 (HBV) of under 1 µM and a CC50 at 6 days [1] of over 10 µM.

With O=C(Nc1ccc(F)c(Cl)c1)N1CCn2ncc(C(=O)N3CCCOCC34CC4)c2C1 [Example 11, N-(3-chloro-4-fluorophenyl) -3-{8-oxa-4-azaspiro[2.6]nonane-4-carbonyl}-4H,5H,6H,7H-pyrazolo[1,5-a]pyrazine-5-carboxamide] the EC50 (HBV) was under 1 µM and the CC50 at 6 days [1] was over 10 µM.

O=C(Nc1ccc(F)c(Cl)c1)N1CCn2ncc(C(=O)N3CCOCCC34CC4)c2C1 [Example 12, N-(3-chloro-4-fluorophenyl)-3-{7-oxa-4-azaspiro[2.6]nonane-4-carbonyl}-4H,5H,6H,7H-pyrazolo[1,5-a]pyrazine-5-carboxamide] showed an EC50 (HBV) of under 1 µM and a CC50 at 6 days [1] of over 10 µM.

For CN(C(=O)c1cnn2c1CN(C(=O)Nc1ccc(F)c(Cl)c1)CC2)C1(CNCC(F)(F)F)CC1 [Example 13, N5-(3-chloro-4-fluorophenyl)-N3-methyl-N3-(1-{[(2,2,2-trifluoroethyl)amino]methyl}cyclopropyl)-4H,5H,6H,7H-pyrazolo[1,5-a]pyrazine-3,5-dicarboxamide], the EC50 (HBV) was under 1 µM and the CC50 at 6 days [1] was over 10 µM.

For CN(C(=O)c1cnn2c1CN(C(=O)Nc1ccc(F)c(Cl)c1)CC2)C1(CCOC(F)F)CCC1 [Example 14, N5-(3-chloro-4-fluorophenyl)-N3-{1-[2-(difluoromethoxy)ethyl]cyclobutyl}-N3-methyl-4H,5H,6H,7H-pyrazolo[1,5-a]pyrazine-3,5-dicarboxamide], the EC50 (HBV) was under 1 µM and the CC50 at 6 days [1] was over 10 µM.

CN(C(=O)c1cnn2c1CN(C(=O)Nc1ccc(F)c(Cl)c1)CC2)C1(CCOC(F)F)CCCC1 [Example 15, N5-(3-chloro-4-fluorophenyl) -N3-{1-[2-(difluoromethoxy)ethyl]cyclopentyl}-N3-methyl-4H,5H,6H,7H -pyrazolo [1,5-a]pyrazine-3,5-dicarboxamide] gave an EC50 (HBV) of under 1 µM and a CC50 at 6 days [1] of over 10 µM.

In the case of CN(C(=O)c1cnn2c1CN(C(=O)Nc1ccc(F)c(Cl)c1)CC2)C1(CCOC(F)F)CCOCC1 [Example 16, N5-(3-chloro-4-fluorophenyl)-N3-{4-[2-(difluoromethoxy)ethyl]oxan-4-yl}-N3-methyl-4H,5H,6H,7H-pyrazolo[1,5-a]pyrazine-3,5-dicarboxamide], the EC50 (HBV) is reported as under 1 µM and the CC50 at 6 days [1] is reported as over 10 µM.

CC1Cn2ncc(C(=O)N(C)C3CC3)c2CN1C(=O)Nc1ccc(F)c(Cl)c1 (stereo not shown) [Example 17, N5-(3-chloro-4-fluorophenyl)-N3-cyclopropyl-N3,6-dimethyl-4H,5H,6H,7H -pyrazolo[1,5-a]pyrazine-3,5-dicarboxamide] gave an EC50 (HBV) of under 1 µM and a CC50 at 6 days [1] of over 10 µM.
